Experimental data reported in publication PMC4433340 (PLoS Neglected Tropical Diseases, 2015).

How the values were obtained:
Assay type in all cases: cell-based, human
[1] = system: E-selectin, ICAM-1 and VCAM-1 expression on T. cruzi-infected EA.hy926 and HUVEC cells; experiment: Endothelial cell adhesion molecule surface expression by flow cytometry / immunofluorescence; details: EA.hy926
Protocol: Then, cells were infected with trypomastigotes at a MOI of 10 and incubated for 16 hours. Cells were detached with 1X EDTA-PBS at 0.5 mM. The harvested cells were washed with cold PBS and centrifuged at 800 x g for 5 minutes. Then, cells were washed with flow cytometry buffer three times. 100 μL of cell suspensions were incubated for 45 min at 4°C in the dark with mouse monoclonal anti- human E-selectin (5 μL undiluted), ICAM-1(3 μL undiluted), and VCAM-1 (1 μL undiluted) that were conjugated with PE, FITC and APC, respectively (BioLegend, USA). Cell suspensions were analyzed by flow cytometry using a FACSAria-III flow cytometer (BD Biosciences, USA). A homogeneous cell population was selected by size vs. granularity in log scale for these two conditions.
2x10^4 EA.hy926 cells/slide were seeded in Lab-Tek II Chamber Slide^TM (ThermoScientific, USA) and allowed to adhere overnight. […] After 16 hours of infection, cells were fixed in 4% formaldehyde–0.1 M phosphate buffer (pH 7.3) for 10 min. Cells were blocked with 3% bovine serum albumin for 1 hour. Then, cells were incubated with monoclonal antibodies against E-selectin (1:100), VCAM-1 (1:250) and ICAM-1 (1:100) (from Abcam, UK) overnight at 4°C. The samples were washed with PBS and incubated with anti-rabbit IgG that had been conjugated with fluorescein (1:100) from Sigma-Aldrich for 1 h. Finally, nuclei were stained with DAPI for 5 minutes and mounted with Dako Fluorescence Mounting (Dako, USA). The cells were photographed using a Nikon Eclipse 400 fluorescence microscope (Nikon, Japan), and images were analyzed by mean intensity using ImageJ software (ImageJ 1.47v).

[2] = system: NF-κB p65 in T. cruzi-infected EA.hy926 cells; experiment: Nuclear p65 localization by confocal microscopy; details: 100 nM 15-epi-LXA4 before T. cruzi 1 hour
Protocol: 2x10^4 EA.hy926 cells were seeded in Lab-Tek II Chamber Slides^TM for 12 hours. Cells were fixed in 3.7% formaldehyde–0.1 M phosphate buffer (pH 7.3) for 10 min. They were then washed with cytoskeletal buffer followed by permeabilization for 5 min with Triton-X100 0.5%. Cells were blocked with 3% bovine serum albumin for 1 hour. […] The samples were washed with PBS and incubated with anti-rabbit IgG conjugated with fluorescein (1:100) from Sigma-Aldrich for 1 hour. Finally, nuclei were stained with DAPI for 5 minutes and mounted in Dako fluorescence mounting media. The cells were photographed and ten pictures per well were obtained; images were analyzed using ImageJ software (ImageJ 1.47v).

[3] = system: NF-κB pathway (p-IKK, p-IκB) in T. cruzi-infected EA.hy926 cells; experiment: IKK and IκB phosphorylation by Western blot; details: exogenous 15-epi-LXA4 for 24 hours before T. cruzi 1 hour
Protocol: 5x10^5 endothelial cells were rinsed once with PBS and scraped. Proteins were extracted into 100 μL RIPA buffer plus a protease and phosphatase inhibitor cocktail (Radio-Immunoprecipitation Assay; Millipore Corporation, USA) at 4°C. Total protein was quantified with the Lowry assay. Samples in loading buffer (10% SDS, 50% glycerol, 0.5 M Tris, 0.1% bromophenol blue, and 1 M dithiothreitol, pH 6.8) were electrophoretically separated by 10% SDS-PAGE and transferred to a nitrocellulose membrane. Nitrocellulose membranes were incubated with blocking solution (5% w/v nonfat dry milk, 0.1% Tween-20 in Tris-buffered saline) at room temperature for 1 hour. Then, the membranes were incubated at 4°C overnight with 1 mL solution of primary antibodies against E-selectin (1:1000) and α-Tubulin (1:10.000) from Sigma-Aldrich, ICAM-1 (1:2000) and VCAM-1 (1:1000) from Abcam, 7 ml solution of p-IKK (1:1000), IKK (1:1000), p-IκB (1:1000) and IκB (1:1000) from Cell signaling (Cell Signaling Technologies, USA). Bound antibodies were detected with horseradish peroxidase-conjugated secondary antibodies and visualized by Lumminata forte (Millipore). The nitrocellulose was stripped between reprobes using Mild stripping (Millipore) for 10 minutes. Developed films were scanned, and band densitometry was analyzed using ImageJ software (ImageJ 1.47v).

| SMILES | ICAM expression in presence of simvastatin plus 5-lipoxygenase inhibitor ([1]; 5 μM simvastatin with AA-861 (50 μM) for 24 hours before 16 hours infection) | Nuclear p65 migration [2] | Endothelial adhesion molecule expression ([1]; 1 and 10 nM 15-epi-LXA4 for 24 hours before 16 hours infection) | IKK-IκB pathway activity [3] |
| --- | --- | --- | --- | --- |
| CC1=C(C)C(=O)C(CCCCC#CCCCC#CCO)=C(C)C1=O [AA-861, 2-(12-hydroxydodeca-5,10-diynyl)-3,5,6-trimethyl-p-benzoquinone] | ICAM expression was restored | – | – | – |
| CCCCC[C@@H](O)/C=C/C=C\C=C\C=C\[C@@H](O)[C@@H](O)CCCC(=O)O [15-epi-LXA4, 15-epi-lipoxin A4] | – | decreased nuclear p65 migration | reduced endothelial adhesion molecule expression | decreased IKK-IκB pathway activity in a dose-dependent fashion |
